The subject of assay [1] is H358 cells. As to the kind of experiment: Inhibition of KRas-mediated phosphorylation of ERK (Cisbio HTRF pERK), H358 cells. It counts as cell-based. As to conditions: Homo sapiens; for inhibition at 0.1 µM: NCI-H358, single point at 100 nM, 3 hrs compound incubation.
Assay [2] relates to A549 cells. As to the kind of experiment: Inhibition of KRas-mediated phosphorylation of ERK (Cisbio HTRF pERK), A549 cells. The format is cell-based. As to conditions: Homo sapiens; for inhibition at 0.1 µM: single point at 100 nM, 3 hrs compound incubation.
Assay [3] relates to ASPC1 cells. In words: Inhibition of KRas-mediated phosphorylation of ERK (Cisbio HTRF pERK), ASPC1 cells. To be noted: Homo sapiens, AsPC-1 cells; for inhibition at 0.1 µM: ASPC1, single point at 100 nM, 3 hrs compound incubation; for IC50: ASPC1, 3 h, 3 hr compound incubation. It counts as cell-based.
The target in assay [4] is KRas G12R (Homo sapiens, UniProt P01116, G12R). In words: biochemical. As to conditions: Binding to KRas (IC50 nM) G12R, TR-FRET displacement, KRas G12R.
Sequence of KRas G12R (P01116 1-169 isoform P01116-2 G12R): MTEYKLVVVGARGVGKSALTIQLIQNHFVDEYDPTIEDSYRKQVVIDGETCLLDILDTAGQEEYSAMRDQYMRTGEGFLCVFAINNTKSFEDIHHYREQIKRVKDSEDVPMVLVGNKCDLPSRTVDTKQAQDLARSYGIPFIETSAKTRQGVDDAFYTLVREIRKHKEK
The target of assay [5] is KRas G12V (Homo sapiens, UniProt P01116, G12V). In words: biochemical. As to conditions: Binding to KRas (IC50 nM) G12V, TR-FRET displacement, KRas G12V.
Sequence of KRas G12V (P01116 1-169 isoform P01116-2 G12V): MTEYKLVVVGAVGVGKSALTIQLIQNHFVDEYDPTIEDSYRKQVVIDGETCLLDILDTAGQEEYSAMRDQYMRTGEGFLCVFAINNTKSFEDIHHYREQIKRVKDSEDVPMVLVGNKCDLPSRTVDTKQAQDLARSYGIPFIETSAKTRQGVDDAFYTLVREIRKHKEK
Assay [6] deals with KRas G12D (Homo sapiens, UniProt P01116, G12D). In words: biochemical. As to conditions: Binding to KRas (IC50 nM) G12D, TR-FRET displacement, KRas G12D.
Sequence of KRas G12D (P01116 1-169 isoform P01116-2 G12D): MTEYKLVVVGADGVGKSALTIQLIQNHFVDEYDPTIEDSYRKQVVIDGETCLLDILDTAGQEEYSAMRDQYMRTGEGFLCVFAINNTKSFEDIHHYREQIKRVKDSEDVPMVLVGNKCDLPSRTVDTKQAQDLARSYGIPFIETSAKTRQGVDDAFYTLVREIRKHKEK
For assay [7], the system named is H727 cells. In words: Inhibition of KRas-mediated phosphorylation of ERK (Cisbio HTRF pERK), H727 cells. The format is cell-based. To be noted: Homo sapiens; for inhibition at 0.1 µM: NCI-H727, single point at 100 nM, 3 hrs compound incubation; for IC50: NCI-H727, 3 h, 3 hr compound incubation.
In assay [8] the test system is H460 cells. In words: Inhibition of KRas-mediated phosphorylation of ERK (Cisbio HTRF pERK), H460 cells. The format is cell-based. To be noted: Homo sapiens, NCI-H460, single point at 100 nM, 3 hrs compound incubation.
The test system of assay [9] is HCT116 cells. As to the kind of experiment: Inhibition of KRas-mediated phosphorylation of ERK (Cisbio HTRF pERK), HCT116 cells. It counts as cell-based. To be noted: Homo sapiens, HCT-116, single point at 100 nM, 3 hrs compound incubation.

For the molecule `CCc1c(F)ccc2cc(O)cc(N3CCc4c(nc(OC[C@@]56CCCN5C[C@H](F)C6)nc4N4CCCc5c(cnn5C5CC5)C4)C3)c12` [Example 238, 4-(4-(1-cyclopropyl-7,8-dihydropyrazolo[4,3-c]azepin-5(1H,4H,6H)-yl)-2-(((2R,7aS)-2-fluorohexahydro-1H-pyrrolizin-7a-yl)methoxy)-5,6-dihydropyrido[3,4-d]pyrimidin-7(8H)-yl)-5-ethyl-6-fluoronaphthalen-2-ol], the inhibition at 0.1 µM in assay [1] is -17%; in assay [2], -3%; in assay [3], 9%; in assay [7] it was -2%. In addition, the results for the IC50 in [4], in assay [5] and in [6] were 4610 nM, 1140 nM and 1390 nM, respectively.
As for `CCc1c(F)ccc2cc(O)cc(N3CCc4c(nc(OC[C@@]56CCCN5C[C@H](F)C6)nc4N4CCCc5c(cnn5C5CCC5)C4)C3)c12` [Example 240, 4-(4-(1-cyclobutyl-7,8-dihydropyrazolo[4,3-c]azepin-5(1H,4H,6H)-yl)-2-(((2R,7aS)-2-fluorohexahydro-1H-pyrrolizin-7a-yl)methoxy)-5,6-dihydropyrido[3,4-d]pyrimidin-7(8H)-yl)-5-ethyl-6-fluoronaphthalen-2-ol], the inhibition at 0.1 µM in assay [1] is -1%; in assay [2], -1%; in [3], -5%; in assay [7], -18%. Besides, the IC50 in assay [4] came to 7480 nM; in [5] it was 2380 nM; in [6] it was 9840 nM.
Take `CCc1c(F)ccc2cc(O)cc(N3CCc4c(nc(OC[C@@]56CCCN5C[C@H](F)C6)nc4N4CCCc5nn(C6CCC6)cc5C4)C3)c12` [Example 241, 4-(4-(2-cyclobutyl-7,8-dihydropyrazolo[4,3-c]azepin-5(2H,4H,6H)-yl)-2-(((2R,7aS)-2-fluorohexahydro-1H-pyrrolizin-7a-yl)methoxy)-5,6-dihydropyrido[3,4-d]pyrimidin-7(8H)-yl)-5-ethyl-6-fluoronaphthalen-2-ol]: the inhibition at 0.1 µM is -15% in [1], 5% in assay [2], 5% in assay [3] and -4% in assay [7]. For the same molecule, the IC50 in [3] (Cisbio pERK HTRF) stood at 7110 nM; in assay [4] it was 48 nM; in assay [5], 155 nM; in assay [6], 173 nM; in [7] (Cisbio pERK HTRF), 5020 nM.
For the molecule `CCc1c(F)ccc2cc(O)cc(N3CCc4c(nc(OC[C@@]56CCCN5C[C@H](F)C6)nc4N4CCCc5nn(C6COC6)cc5C4)C3)c12` [Example 242, 5-ethyl-6-fluoro-4-(2-(((2R,7aS)-2-fluorohexahydro-1H-pyrrolizin-7a-yl)methoxy)-4-(2-(oxetan-3-yl)-7,8-dihydropyrazolo[4,3-c]azepin-5(2H,4H,6H)-yl)-5,6-dihydropyrido[3,4-d]pyrimidin-7(8H)-yl)naphthalen-2-ol], the inhibition at 0.1 µM was 3% in assay [1], 6% in assay [2], -9% in [3] and 2% in assay [7]. Also, the half-inhibitory concentration (IC50) in [3] (Cisbio pERK HTRF) amounted to 3480 nM; in assay [4], 49 nM; in [5], 85 nM; in assay [6], 57 nM; in [7] (Cisbio pERK HTRF) it was 5630 nM.
As for `CCc1c(F)ccc2cc(O)cc(N3CCc4c(nc(OC[C@@]56CCCN5C[C@H](F)C6)nc4N4CCCn5nc(C(N(C)C)C(F)(F)F)cc5C4)C3)c12` (stereo partly drawn) [Example 280, 4-(4-(2-(1-(dimethylamino)-2,2,2-trifluoroethyl)-7,8-dihydro-4H-pyrazolo[1,5-a][1,4]diazepin-5(6H)-yl)-2-(((2R,7aS)-2-fluorotetrahydro-1H-pyrrolizin-7a(5H)-yl)methoxy)-5,8-dihydropyrido[3,4-d]pyrimidin-7(6H)-yl)-5-ethyl-6-fluoronaphthalen-2-ol], the inhibition at 0.1 µM was 14% in [1] and -20% in [2]. Moreover, the IC50 was 7000 nM in assay [3] (Cisbio pERK HTRF); 230 nM in assay [4]; 264 nM in assay [5]; 195 nM in [6]; more than 10000 nM in assay [7] (Cisbio pERK HTRF).
For `CCc1c(F)ccc2cc(O)cc(N3CCc4c(nc(OC[C@@]56CCCN5C[C@H](F)C6)nc4N4CCCn5nc(N(C(C)=O)C(C)C)cc5C4)C3)c12` [Example 287, N-(5-(7-(8-ethyl-7-fluoro-3-hydroxynaphthalen-1-yl)-2-(((2R,7aS)-2-fluorohexahydro-1H-pyrrolizin-7a-yl)methoxy)-5,6,7,8-tetrahydropyrido[3,4-d]pyrimidin-4-yl)-5,6,7,8-tetrahydro-4H-pyrazolo[1,5-a][1,4]diazepin-2-yl)-N-i sopropyvlacetamide], the inhibition at 0.1 µM in assay [1] is -20%; in assay [2], -15%. The IC50 in assay [3] (Cisbio pERK HTRF) was 6450 nM; in assay [4] it was 441 nM; in [5] it was 717 nM; in assay [6], 505 nM; in assay [7] (Cisbio pERK HTRF) it was more than 10000 nM.
Consider `CCc1c(F)ccc2cc(O)cc(N3CCc4c(nc(OC[C@@]56CCCN5C[C@H](F)C6)nc4N4CCCn5nc(CS(=O)(=O)NC)cc5C4)C3)c12` [Example 495, 1-(5-(7-(8-ethyl-7-fluoro-3-hydroxynaphthalen-1-yl)-2-(((2R,7aS)-2-fluorohexahydro-1H-pyrrolizin-7a-yl)methoxy)-5,6,7,8-tetrahydropyrido[3,4-d]pyrimidin-4-yl)-5,6,7,8-tetrahydro-4H-pyrazolo[1,5-a][1,4]diazepin-2-yl)-N-methylmethanesulfonamide], for which the inhibition at 0.1 µM is 1% in assay [1], 26% in [2], -1% in assay [3] and 3% in assay [7]. The IC50 in assay [3] (Cisbio pERK HTRF) worked out at 1240 nM; in [4] it was 11 nM; in assay [5] it was 12 nM; in [6], 3 nM; in assay [7] (Cisbio pERK HTRF), 2900 nM.
Regarding `CCCCCCCCN(C)C(=O)c1cc2n(n1)CCCN(c1nc(OC[C@@]34CCCN3C[C@H](F)C4)nc3c1CCN(c1cc(O)cc4ccc(F)c(CC)c14)C3)C2` [Example 498, 5-(7-(8-ethyl-7-fluoro-3-hydroxynaphthalen-1-yl)-2-(((2R,7aS)-2-fluorohexahydro-1H-pyrrolizin-7a-yl)methoxy)-5,6,7,8-tetrahydropyrido[3,4-d]pyrimidin-4-yl)-N-methyl-N-octyl-5,6,7,8-tetrahydro-4H-pyrazolo[1,5-a][1,4]diazepine-2-carboxamide], the inhibition at 0.1 µM in [1] was 5%; in [2] it was 25%; in assay [3] it was -13%; in assay [7], 12%. Further, the half-inhibitory concentration (IC50) turned out to be 258 nM in [3] (Cisbio pERK HTRF); 22 nM in assay [4]; 9 nM in assay [5]; 10 nM in [6]; 410 nM in assay [7] (Cisbio pERK HTRF).
Turning to `CCc1c(F)ccc2cc(O)cc(N3CCc4c(nc(OC[C@@]56CCCN5C[C@H](F)C6)nc4N4CCCn5nc(C(=O)N6CC7(CNC7)C6)cc5C4)C3)c12` [Example 505, (5-(7-(8-ethyl-7-fluoro-3-hydroxynaphthalen-1-yl)-2-(((2R,7aS)-2-fluorohexahydro-1H-pyrrolizin-7a-yl)methoxy)-5,6,7,8-tetrahydropyrido[3,4-d]pyrimidin-4-yl)-5,6,7,8-tetrahydro-4H-pyrazolo[1,5-a][1,4]diazepin-2-yl)(2,6-diazaspiro[3.3]heptan-2-yl)methanone], the inhibition at 0.1 µM in [8] was 0%; in [9] it was 7%; in [3] it was 30%; in [7] it was 26%. Moreover, the IC50 in assay [3] (Cisbio pERK HTRF) was 128 nM; in assay [7] (Cisbio pERK HTRF), 1080 nM.
`CCc1c(F)ccc2cc(O)cc(N3CCc4c(nc(OC[C@@]56CCCN5C/C(=C\F)C6)nc4N4CCC[C@]5(C4)NC(=O)NC5=O)C3)c12` [Example 715, (R)-7-(7-(8-ethyl-7-fluoro-3-hydroxynaphthalen-1-yl)-2-(((S,Z)-2-(fluoromethylene)tetrahydro-1H-pyrrolizin-7a(5H)-yl)methoxy)-5,6,7,8-tetrahydropyrido[3,4-d]pyrimidin-4-yl)-1,3,7-triazaspiro[4.5]decane-2,4-dione]: the concentration for half-maximal inhibition (IC50) in assay [1] (NCI-H358, 3 h, 3 hr compound incubation) was 1 nM; in assay [2] (A549, 3 h, 3 hr compound incubation), 1 nM; in assay [3], 2 nM; in assay [7] it was 4 nM.
